Source: patent US20230183239A1, “ECTONUCLEOTIDE PYROPHOSPHATASE-PHOSPHODIESTERASE 1 (ENPP-1) INHIBITORS AND USES THEREOF” (AbbVie Inc., priority 2017, published 2023)
pKi: −log10 of the molar value.

Biological target: T1, ENPP1 (Homo sapiens, UniProt P22413)
T1 sequence (P22413 1-925): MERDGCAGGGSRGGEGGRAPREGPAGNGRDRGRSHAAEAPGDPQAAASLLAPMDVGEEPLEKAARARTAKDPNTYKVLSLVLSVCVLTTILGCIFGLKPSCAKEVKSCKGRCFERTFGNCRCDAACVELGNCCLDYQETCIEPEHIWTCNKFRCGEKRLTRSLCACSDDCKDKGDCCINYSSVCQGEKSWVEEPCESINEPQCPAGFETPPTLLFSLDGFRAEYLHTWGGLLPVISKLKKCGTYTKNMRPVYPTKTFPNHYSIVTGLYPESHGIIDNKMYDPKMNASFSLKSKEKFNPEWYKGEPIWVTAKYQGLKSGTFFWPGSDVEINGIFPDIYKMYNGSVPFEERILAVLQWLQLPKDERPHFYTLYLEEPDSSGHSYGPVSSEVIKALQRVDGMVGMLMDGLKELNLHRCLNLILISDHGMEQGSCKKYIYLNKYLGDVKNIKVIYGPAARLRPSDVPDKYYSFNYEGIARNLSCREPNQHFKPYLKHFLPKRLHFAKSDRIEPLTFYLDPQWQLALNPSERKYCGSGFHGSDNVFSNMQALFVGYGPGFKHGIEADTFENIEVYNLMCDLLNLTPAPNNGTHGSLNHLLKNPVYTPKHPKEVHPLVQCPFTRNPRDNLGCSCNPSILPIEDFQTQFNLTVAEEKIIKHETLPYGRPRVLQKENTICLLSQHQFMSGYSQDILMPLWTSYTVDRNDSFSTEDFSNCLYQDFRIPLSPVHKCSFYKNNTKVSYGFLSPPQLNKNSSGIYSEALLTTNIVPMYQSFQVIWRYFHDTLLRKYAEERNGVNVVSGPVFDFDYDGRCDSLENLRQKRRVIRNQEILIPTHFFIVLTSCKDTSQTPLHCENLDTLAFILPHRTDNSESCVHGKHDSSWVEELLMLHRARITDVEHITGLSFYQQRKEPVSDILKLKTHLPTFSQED
Test: Indirect quantitation of 2',3'-cGAMP hydrolysis (AMP-Glo Assay kit)
Type: biochemical
Details: cGAMP substrate; Ki from IC50 by Cheng-Prusoff; read-out: ENPP1 Inhibition -cGAMP: Ki

Row | SMILES | pKi
1 | NS(=O)(=O)NCCC1CCN(c2ncnc3cc(OC(F)(F)F)ccc23)CC1 [Example 209, N-(2-(1-(7-(trifluoromethoxy)quinazolin-4-yl)piperidin-4-yl)ethyl)sulfamide] | < 6.00
2 | COc1cc2cnn(-c3ccc(CCNS(N)(=O)=O)cc3)c2cc1OC [Example 210, N-(4-(5,6-dimethoxy-1H-indazol-1-yl)phenethyl)sulfamide] | < 6.00
3 | NS(=O)(=O)NCCC1CCN(c2ccnc3ncn(-c4ccccc4)c23)CC1 [Example 211, N-(2-(1-(1-phenyl-1H-imidazo[4,5-b]pyridin-7-yl)piperidin-4-yl)ethyl)sulfamide] | < 6.00
4 | NS(=O)(=O)NCCC1CCN(c2ccnc3cc4c(cc23)OCO4)CC1 [Example 215, N-(2-(1-([1,3]dioxolo[4,5-g]quinolin-8-yl)piperidin-4-yl)ethyl)sulfamide] | < 6.00
5 | N#Cc1cnc2cc3c(cc2c1N1CCC(CCNS(N)(=O)=O)CC1)OCO3 [Example 221, N-(2-(1-(7-cyano-[1,3]dioxolo[4,5-g]quinolin-8-yl)piperidin-4-yl)ethyl)sulfamide] | < 6.00
6 | COc1cc2nccc(N3CCC(CN4CCCNS4(=O)=O)CC3)c2cc1OC [Example 223, 2-((1-(6,7-dimethoxyquinolin-4-yl)piperidin-4-yl)methyl)-1,2,6-thiadiazinane 1,1-dioxide] | < 6.00
7 | COc1cc2ncnc(NCc3ccc(N4CCNS4(=O)=O)cc3)c2cc1OC [Example 228, 2-(4-(((6,7-dimethoxyquinazolin-4-yl)amino)methyl)phenyl)-1,2,5-thiadiazolidine 1,1-dioxide] | < 6.00
8 | NS(=O)(=O)NCCC1CCN(c2ncnc3c2CCN(Cc2ccccc2)C3)CC1 [Example 233, N-(2-(1-(7-benzyl-5,6,7,8-tetrahydropyrido[3,4-d]pyrimidin-4-yl)piperidin-4-yl)ethyl)sulfamide] | < 6.00
9 | COc1cc2ncnc(Nc3ccc(CNS(N)(=O)=O)cc3)c2cc1OC [Example 234, N-(4-((6,7-dimethoxyquinazolin-4-yl)amino)benzyl)sulfamide] | < 6.00
10 | COc1cc2ncnc(Nc3ccc(N4CCNS4(=O)=O)cc3)c2cc1OC [Example 243, 2-(4-((6,7-dimethoxyquinazolin-4-yl)amino)phenyl)-1,2,5-thiadiazolidine 1,1-dioxide] | < 6.00
11 | COc1cc2ncnc(N3CCC(CNc4nc5ccccc5[nH]4)CC3)c2cc1OC [Example 251, N-((1-(6,7-dimethoxyquinazolin-4-yl)piperidin-4-yl)methyl)-1H-benzo[d]imidazol-2-amine] | < 6.00
12 | COc1cc2ncnc(N3CCC(Cn4c(N)nc5ccccc54)CC3)c2cc1OC [Example 252, 1-((1-(6,7-dimethoxyquinazolin-4-yl)piperidin-4-yl)methyl)-1H-benzo[d]imidazol-2-amine] | < 6.00
13 | COc1cc2nccc(N(C)Cc3ccc(NS(N)(=O)=O)cc3)c2cc1OC [Example 255, N-(4-(((6,7-dimethoxyquinolin-4-yl)(methyl)amino)methyl)phenyl)s ulfamide] | < 6.00
14 | COc1cc2c(-c3ccc4c(c3)CN(S(N)(=O)=O)CC4)c(C#N)cnc2cn1 [Example 257, 7-(3-cyano-6-methoxy-1,7-naphthyridin-4-yl)-3,4-dihydroisoquinoline-2(1H)-sulfonamide] | < 6.00
15 | COc1ccc2c(Oc3ccc(NS(N)(=O)=O)cc3)ccnc2c1F [Example 268, N-(4-((8-fluoro-7-methoxyquinolin-4-yl)oxy)phenyl)sulfamide] | < 6.00
16 | COc1cc2ncc(-c3ccc(NS(N)(=O)=O)cc3)nc2cc1OC [Example 270, N-(4-(6,7-dimethoxyquinoxalin-2-yl)phenyl)sulfamide] | < 6.00

Continued, values first:

Row | pKi | SMILES
17 | < 6.00 | COc1ccc(S(=O)(=O)N2CCN(CCNS(N)(=O)=O)CC2)cc1OC [Example 152, N-(2-(4-((3,4-dimethoxyphenyl)sulfonyl)piperazin-1-yl)ethyl)sulfamide]
18 | < 6.00 | COc1cc2nccc(C(=O)N3CCC(CCNS(N)(=O)=O)CC3)c2cc1OC [Example 154, N-(2-(1-(6,7-dimethoxyquinoline-4-carbonyl)piperidin-4-yl)ethyl)sulfamide]
19 | 6.00 to 7.00 | COc1cc2ncnc(N3CCC(CCNS(=O)(=O)c4ccccn4)CC3)c2cc1OC [Example 155, N-(2-(1-(6,7-dimethoxyquinazolin-4-yl)piperidin-4-yl)ethyl)pyridine-2-sulfonamide]
20 | > 7.00 | COc1cc2ncnc(N3CC=C(c4ccc5c(c4)COB5O)CC3)c2cc1OC [Example 157, 5-(1-(6,7-dimethoxyquinazolin-4-yl)-1,2,3,6-tetrahydropyridin-4-yl)benzo[c][1,2] oxaborol-1(3H)-ol]
21 | < 6.00 | COc1cc2ncnc(NCc3ccc(S(=O)(=O)O)cc3)c2cc1OC [Example 161, 4-(((6,7-dimethoxyquinazolin-4-yl)amino)methyl)benzene sulfonic acid]
22 | > 7.00 | COc1cc2nccc(Oc3ccc(NS(=O)(=O)C(F)(F)F)cc3)c2cc1OC [Example 162, N-(4-((6,7-dimethoxyquinolin-4-yl)oxy)phenyl)-1,1,1-trifluoromethanesulfonamide]
23 | < 6.00 | CNC(=O)c1ccc2c(N3CCC(CCNS(N)(=O)=O)CC3)ncnc2c1 [Example 163, N-methyl-4-(4-(2-(sulfamoylamino)ethyl)piperidin-1-yl)quinazoline-7-carboxamide]
24 | < 6.00 | COc1cc2ncn(Cc3ccc(NS(N)(=O)=O)cc3)c(=O)c2cc1OC [Example 165, N-(4-((6,7-dimethoxy-4-oxoquinazolin-3 (4H)-yl)methyl)phenyl) sulfamide]
25 | 6.00 to 7.00 | COc1cc2cnn(-c3ccc(CNS(N)(=O)=O)cc3)c2cc1OC [Example 166, N-(4-(5,6-dimethoxy-1H-indazol-1-yl)benzyl)sulfamide]
26 | < 6.00 | CNS(=O)(=O)NCCC1CCN(c2ncnc3cc(OC)c(OC)cc23)CC1 [Example 168, 2-(1-(6,7-dimethoxyquinazolin-4-yl)piperidin-4-yl)ethan-1-amino(N-methyl)sulfonamide]
27 | < 6.00 | NS(=O)(=O)NCCC1CCN(c2ncnc3cc4c(cc23)OCO4)CC1 [Example 170, N-(2-(1-([1,3]dioxolo[4,5-g]quinazolin-8-yl)piperidin-4-yl)ethyl)sulfamide]
28 | < 6.00 | COc1cc2c(cc1OC)N(Cc1ccc(NS(N)(=O)=O)cc1)C(=O)CC2 [Example 173, N-(4-((6,7-dimethoxy-2-oxo-3,4-dihydroquinolin-1 (2H)-yl)methyl)phenyl) sulfamide]
29 | < 6.00 | COc1cc2nccc(Oc3ccc(NS(N)(=O)=O)nc3)c2cc1OC [Example 176, N-(5-((6,7-dimethoxyquinolin-4-yl)oxy)pyridin-2-yl)sulfamide]
30 | < 6.00 | COc1cc2nccc(N3CCC(CCNS(=O)(=O)NCC(F)(F)F)CC3)c2cc1OC [Example 177, 2-(1-(6,7-dimethoxyquinolin-4-yl)piperidin-4-yl)ethan-1-amino(N-trifluoroethyl) sulfonamide]
31 | < 6.00 | COc1cc2nccc(C(=O)N3CCC(CNS(N)(=O)=O)CC3)c2cc1OC [Example 178, N-((1-(6,7-dimethoxyquinoline-4-carbonyl)piperidin-4-yl)methyl)sulfamide]
32 | < 6.00 | COc1cc2ncnc(OCc3ccc(NS(N)(=O)=O)cc3)c2cc1OC [Example 179, N-(4-(((6,7-dimethoxyquinazolin-4-yl)oxy)methyl)phenyl)sulfamide]
33 | < 6.00 | COc1cc2nccc(NC(C)c3ccc(NS(N)(=O)=O)cc3)c2cc1OC (stereo not drawn) [Example 181, N-(4-(1-((6,7-dimethoxyquinolin-4-yl)amino)ethyl)phenyl)sulfamide]
34 | < 6.00 | COc1cc2ncnc(N3CCC(CCNS(=O)(=O)Nc4ccccc4)CC3)c2cc1OC [Example 183]
35 | < 6.00 | COc1cc2ccn(-c3ccc(CNS(N)(=O)=O)cc3)c2cc1OC [Example 186, N-(4-(5,6-dimethoxy-1H-indol-1-yl)benzyl)sulfamide]
36 | < 6.00 | COc1cc2nccc(N3CCC4(CCNC4=O)CC3)c2cc1OC [Example 187, 8-(6,7-dimethoxyquinolin-4-yl)-2,8-diazaspiro[4.5]decan-1-one]
37 | 6.00 to 7.00 | COc1cc2ncnc(NC(=O)c3ccc(NS(N)(=O)=O)cc3)c2cc1OC [Example 188, N-(6,7-dimethoxyquinazolin-4-yl)-4-(sulfamoylamino)benzamide]
38 | < 6.00 | NC(=O)c1ccc2nccc(N3CCC(CCNS(N)(=O)=O)CC3)c2c1 [Example 192, 4-(4-(2-(sulfamoylamino)ethyl)piperidin-1-yl)quinoline-6-carboxamide]
39 | < 6.00 | NS(=O)(=O)NCCC1CCN(c2ncnc3ccc(OC(F)(F)F)cc23)CC1 [Example 194, N-(2-(1-(6-(trifluoromethoxy)quinazolin-4-yl)piperidin-4-yl)ethyl)sulfamide]
